Test results taken from patent US4021431A, “3-(Piperidino-lower-alkyl)-indoles” (Sterling Drug Inc., priority 1975, dated 1977).
Counter-ions that a name gives are not always drawn.

Tested on: adjuvant-induced arthritis
Assay: inhibition of adjuvant-induced arthritis test (AA)
Conditions: for AA: toxicity noted in place of % inhibition: oral, twelve daily medications
[1] = Rattus norvegicus, po, read-out: AA (% Inhib.)

Method: The inhibition of adjuvant-induced arthritis test used in the evaluation of the instant compounds is described briefly as follows: Adult male Sprague-Dawley strain rats weighing 200-230 grams were used; 0.1 ml. of a 0.6% suspension of adjuvant (M. Butyricum, Difco Laboratories, Detroit, Michigan) in heavy mineral oil was injected into the plantar tissue of the left hind paw. A negative control group was injected with mineral oil only. Symptoms of polyarthritis began to appear approximately ten days after adjuvant administration, and beginning on the ninth day after adjuvant injection, the animals were given, by gavage, twelve daily medications of the test compounds suspended in 1% gum tragacanth in a volume of 1 ml./100 g. of body weight. Both the negative control and adjuvant injected control animals received the vehicle only. Food and water are permitted ad libitum. Twenty-four hours after the last medication, the animals were weighed, the degree of arthritic involvement (that is the increase in foot edema measured plethysmographically as described above), and plasma inflammation units were determined. The results were expressed as percent inhibition calculated from the average differences in total foot volume of both hind paws between the adjuvant injected control and medicated rats, correcting for difference in foot volume of the oil injected negative control group.
Following foot volume measurements, the animals were anesthetized with ether and bled by heart puncture into rubber stoppered, evacuated glass tubes (calibrated to draw 2.7 ml.) containing 0.3 ml. of 0.1M sodium oxalate solution for determination of plasma inflammation units (P.I.U.). The unclotted blood was centrifuged, and 0.1 ml. of the plasma was diluted with 5.0 of 0.9% sodium chloride solution. The P.I.U.'s are direct spectrophotometer optical density readings expressed as the difference between preheated and heated plasma, corrected for 1:50 dilution. The results were expressed as percent inhibition calculated from the difference between the average plasma uncorrected for average plasma inflammation units of oil-injected negative control rats.
All data were obtained on oral administration.

In the case of COc1ccc2c(c1)c(CCN1CCC(CCC3CCCCC3)CC1)c(C)n2C(=O)c1ccccc1 [Example 89, 1-benzoyl-3-{2-[4-(2-cyclohexylethyl)piperidino]ethyl}-5-methoxy-2-methylindole hydrochloride], the inhibition in vivo at 0.08 µM, 0.08 µmol/kg [1] is reported as 89%.

Work on COc1ccc2c(c1)c(CCN1CCCCC1CC1CCCCC1)c(C)n2C(=O)c1ccccc1Br (centres unmarked) [Example 7] yielded an inhibition in vivo at 0.08 µM, 0.08 µmol/kg [1] of 29%.

Compound COc1ccc2c(c1)c(CCN1CCCCC1CC1CCCCC1)c(C)n2C(=O)c1ccc(Cl)c(Cl)c1 (centres unmarked) [Example 5] has an inhibition in vivo at 0.08 µM, 0.08 µmol/kg [1] of 0%.

COc1ccc2c(c1)c(CCN1CCCCC1CC1CCCCC1)c(C)n2C(=O)c1ccccc1 (centres unmarked) [Example 1, 1-Benzoyl-3-[2-(2-cyclohexylmethylpiperidino)ethyl]-5-methoxy-2-methylindole] showed an inhibition in vivo at 0.1 µM, 0.1 µmol/kg [1] of 79%.

COc1ccc2c(c1)c(CCN1CCCCC1CC1CCCCC1)c(C)n2C(=O)c1ccc(C)cc1 (centres unmarked) [Example 2] gave an inhibition in vivo at 0.08 µM, 0.08 µmol/kg [1] of 37%.

COc1ccc2c(c1)c(CCN(Cc1ccccc1)C(C)(C)C)c(C)n2C(=O)c1ccccc1 [72 (N-Benzyl), 1-benzoyl-3-[2-(N-benzyl-N-t-butylamino)ethyl]-5-methoxy-2-methylindole hydrochloride] showed an inhibition in vivo at 0.08 µM, 0.08 µmol/kg [1] of 62%.

Compound COc1ccc2c(c1)c(CCN1CCCCC1CC1CCCCC1)c(C)n2C(=O)c1cccc(F)c1 (centres unmarked) [Example 12] has an inhibition in vivo at 0.08 µM, 0.08 µmol/kg [1] of 17%.

Work on COc1ccc2c(c1)c(CCN1CCCCC1CCC1CCCCC1)c(C)n2C(=O)c1ccccc1 (centres unmarked) [Example 64, 1-benzoyl-3-{2-[2-(2-cyclohexylethyl)piperidino]ethyl}-5-methoxy-2-methylindole] yielded an inhibition in vivo at 0.01 µM, 0.01 µmol/kg [1] of 36%, an inhibition in vivo at 0.04 µM, 0.04 µmol/kg [1] of 70% and an inhibition in vivo at 0.16 µM, 0.16 µmol/kg [1] of 100%.

In the case of COc1ccc2c(c1)c(CCN1CCCCC1CC1CCCCC1)c(C)n2C(=O)C=Cc1ccccc1 (centres unmarked) [Example 8], the inhibition in vivo at 0.08 µM, 0.08 µmol/kg [1] is reported as 30%.

For COc1ccc2c(c1)c(CCN1CCC(CCC3CCCCC3)CC1)c(C)n2C(=O)c1ccc(F)cc1 [Example 88, 1-(4-fluorobenzoyl)-3-{2-[4-(2-cyclohexylethyl)piperidino]ethyl}-5-methoxy-2-methylindole hydrochloride], the inhibition in vivo at 0.08 µM, 0.08 µmol/kg [1] was 75%.

Compound COc1ccc2c(c1)c(CCN1CCC(C3CCCCC3)CC1)c(C)n2C(=O)c1ccc(F)cc1 [Example 90, 1-(4-fluorobenzoyl)-3-[2-(4-cyclohexylpiperidino)ethyl]-5-methoxy-2-methylindole hydrochloride] has an inhibition in vivo at 0.08 µM, 0.08 µmol/kg [1] of 77%.

With COc1ccc2c(c1)c(CCN1CCCCC1CC1CCCCC1)c(C)n2C(=O)c1ccco1 (centres unmarked) [Example 11] the inhibition in vivo at 0.324 µM, 0.324 µmol/kg [1] was 50%.

Work on COc1ccc2c(c1)c(CCN1CCCCC1CC1CCCCC1)c(C)n2C(=O)c1ccc(Cl)cc1Cl (centres unmarked) [Example 4] yielded an inhibition in vivo at 0.02 µM, 0.02 µmol/kg [1] of 28% and an inhibition in vivo at 0.324 µM, 0.324 µmol/kg [1] of 80%.

With COc1ccc2c(c1)c(CCN(Cc1ccccc1)C(C)(C)C)c(C)n2C(=O)c1ccc(F)cc1 [Example 85, 1-(4-fluorobenzoyl)-3-[2-(N-benzyl-N-t-butylamino)ethyl]-5-methoxy-2-methylindole hydrochloride] the inhibition in vivo at 0.005 µM, 0.005 µmol/kg [1] was 0%, the inhibition in vivo at 0.02 µM, 0.02 µmol/kg [1] was 11% and the inhibition in vivo at 0.08 µM, 0.08 µmol/kg [1] was 104%.

COc1ccc2c(c1)c(CCNC(C)(C)C)c(C)n2C(=O)c1ccccc1.Cl [72 (N-H), 1-benzoyl-3-[2-(N-t-butylamino)ethyl]-5-methoxy-2-methylindole hydrochloride] was tested, and the “AA: toxicity noted in place of % inhibition” value (0.16 μM/kg.) was “Toxic”.

Compound COc1ccc2c(c1)c(CCN(C(C)C)C(C)C)c(C)n2C(=O)c1ccc(F)cc1 [Example 87, 1-(4-fluorobenzoyl)-3-[2-(diisopropylamino)ethyl]-5-methoxy-2-methylindolehydrochloride] has an inhibition in vivo at 0.005 µM, 0.005 µmol/kg [1] of 43%, an inhibition in vivo at 0.02 µM, 0.02 µmol/kg [1] of 73% and an inhibition in vivo at 0.08 µM, 0.08 µmol/kg [1] of 98%.

In the case of COc1ccc2c(c1)c(CCNC(C)(C)C)c(C)n2C(=O)c1ccc(F)cc1.Cl [Example 86, 1-(4-fluorobenzoyl)-3-[2-(N-t-butylamino)ethyl]-5-methoxy-2-methylindole hydrochloride], the inhibition in vivo at 0.005 µM, 0.005 µmol/kg [1] is reported as 13%, the inhibition in vivo at 0.02 µM, 0.02 µmol/kg [1] is reported as 71% and the “AA: toxicity noted in place of % inhibition” value (0.08 μM/kg.) is reported as “Toxic”.

For COc1ccc2c(c1)c(CCN1CCCCC1CC1CCCCC1)c(C)n2C(=O)c1ccccc1F (centres unmarked) [Example 9], the inhibition in vivo at 0.162 µM, 0.162 µmol/kg [1] was 72%.

Compound Cc1c(CCN2CCCCC2CC2CCCCC2)c2cc(F)ccc2n1C(=O)c1ccccc1 (centres unmarked) [Example 58] has an inhibition in vivo at 0.08 µM, 0.08 µmol/kg [1] of 51%.

Work on COc1ccc2c(c1)c(CCN1CCCCC1C1CCCCC1)c(C)n2C(=O)c1ccccc1 (centres unmarked) [Example 62, 1-benzoyl-3-[2-(2-cyclohexylpiperidino)ethyl]-5-methoxy-2-methylindole hydrochloride] yielded an inhibition in vivo at 0.324 µM, 0.324 µmol/kg [1] of 107%.

In the case of COc1ccc2c(c1)c(CCN1CCCCC1CC1CCCCC1)c(C)n2C(=O)c1ccc(Cl)cc1 (centres unmarked) [Example 84, 1-(4-chlorobenzoyl)-3-[2-(2-cyclohexylmethylpiperidino)ethyl]-5-methoxy-2-methylindole], the inhibition in vivo at 0.01 µM, 0.01 µmol/kg [1] is reported as 36%, the inhibition in vivo at 0.04 µM, 0.04 µmol/kg [1] is reported as 70% and the inhibition in vivo at 0.16 µM, 0.16 µmol/kg [1] is reported as 100%.

COc1ccc2c(c1)c(CCN1CCCCC1CCC1CCCCC1)c(C)n2C(=O)c1ccc(F)cc1 (centres unmarked) [Example 65, 1-(4-fluorobenzoyl)-3-{2-[2-(2-cyclohexylethyl)piperidino]ethyl}-5-methoxy-2-methylindole hydrochloride] gave an inhibition in vivo at 0.08 µM, 0.08 µmol/kg [1] of 85%.

Work on COc1ccc2c(c1)c(CCN(C(C)C)C(C)C)c(C)n2C(=O)c1ccccc1 [Example 73, 1-benzoyl-3-[2-(diisopropylamino)ethyl]-5-methoxy-2-methylindole hydrochloride] yielded an inhibition in vivo at 0.005 µM, 0.005 µmol/kg [1] of 0%, an inhibition in vivo at 0.02 µM, 0.02 µmol/kg [1] of 0% and an inhibition in vivo at 0.08 µM, 0.08 µmol/kg [1] of 53%.

COc1ccc2c(c1)c(CCN1CCCCC1CC1CCCCC1)c(C)n2C(=O)c1ccc(F)cc1 (centres unmarked) [Example 6] showed an inhibition in vivo at 0.02 µM, 0.02 µmol/kg [1] of 66% and an inhibition in vivo at 0.08 µM, 0.08 µmol/kg [1] of 84%.

In the case of Cc1c(CCN2CCCCC2CC2CCCCC2)c2cc(F)cc(F)c2n1C(=O)c1ccccc1 (centres unmarked) [Example 50], the inhibition in vivo at 0.162 µM, 0.162 µmol/kg [1] is reported as 87%.

With COc1ccc2c(c1)c(CCN1CCCCC1CC1CCCCC1)c(C)n2C(=O)c1cccs1 (centres unmarked) [Example 10] the inhibition in vivo at 0.324 µM, 0.324 µmol/kg [1] was 63%.

Compound COc1ccc(C(=O)n2c(C)c(CCN3CCCCC3CC3CCCCC3)c3cc(OC)ccc32)cc1 (centres unmarked) [Example 3] has an inhibition in vivo at 0.18 µM, 0.18 µmol/kg [1] of 64%.

Work on Cc1c(CCN2CCCCC2CC2CCCCC2)c2ccccc2n1C(=O)c1ccccc1 (centres unmarked) [Example 48] yielded an inhibition in vivo at 0.08 µM, 0.08 µmol/kg [1] of 33%.

In the case of COc1ccc2c(c1)c(CCN1CCCCC1CC1CCCCC1)cn2C(=O)c1ccccc1 (centres unmarked) [Example 67], the inhibition in vivo at 0.08 µM, 0.08 µmol/kg [1] is reported as 25%.

Compound COc1ccc2c(c1)c(CCN1CCCCC1C1CCCCC1)c(C)n2C(=O)c1ccc(F)cc1 (centres unmarked) [Example 63, 1-(4-fluorobenzoyl)-3-[2-(2-cyclohexylpiperidino)ethyl]-5-methoxy-2-methylindole hydrochloride] has an inhibition in vivo at 0.08 µM, 0.08 µmol/kg [1] of 84%.
